Measurements: patent publication US20260200924A1, “CANNABINOID RECEPTOR 1 ANTAGONISTS AND USES” (RESEARCH TRIANGLE INSTITUTE, priority 2022, published 2026)

Key:
human CB1 [1] = target: T1, human CB1 (Homo sapiens, UniProt P21554); assay: functional fluorescent calcium mobilization assay, antagonism of CP55,940 (Ke); type: cell-based; conditions: for Kd: apparent equilibrium dissociation constant, CHO cells expressing human CB1 along with Gqα16, agonist CP55,940, read-out: Ke hCB1
T1 construct: expressed in transfected cells; host or cells: CHO cells co-expressing Gqα16
Description: (§1) A functional fluorescent calcium mobilization was performed in CHO cells expressing human CB1 along with Gqα16. In FIG. 1A, a concentration-dependent increase in fluorescence upon treatment with the CB1 agonist CP55,940 is shown (solid line/triangle markers). […] The EC50 values in the presence and absence of the antagonist are used to calculate antagonist apparent equilibrium dissociation constant (Ke). Suppression of basal signaling in the absence of any stimulation/agonism was measured using the same approach. […] Provided data are representative of a minimum of three experiments and were fitted using non-linear regression analyses in GraphPad Prism.

human CB1 [2] = target: T1, human CB1; assay: radioligand displacement assay using [3H]CP55940 in CHO cell membrane preparations; type: binding; conditions: [3H]CP55940 displacement, CHO cell membranes overexpressing human CB1; read-out: Ki hCB1
Text: (§2) See Ki values above, based on radioligand displacement assay using ^3H-CP55940, a synthetic cannabinoid, (−)-cis-3-[2-hydroxy-4-(1,1-dimethylheptyl)phenyl]-trans-4-(3-hydroxypropyl)cyclohexanol, which is a compound commonly used to study the endocannabinoid system.

HLM stability = type: in vitro ADME; conditions: for HLM HL: HLM half-life; for microsomal CLint: human, liver microsomes, HLM clearance, read-out: HLM Cl
human CB2 = human CB2 (Homo sapiens, UniProt P34972); assay: radioligand displacement assay using [3H]CP55940 in CHO cell membrane preparations (CB2, for selectivity); type: binding; conditions: ratio of Ki human CB2 / human CB1
Text: as §2

C57BL6 male mice = assay: THC drug discrimination model; type: in vivo
Text: Drug discrimination is a behavioral model of the interoceptive effects of a compound. This pharmacologically selective model has high predictive validity, producing a strong correlation between drugs that have sharing discriminative stimulus properties in animals and drugs that humans identify as having similar subjective effects. FIG. 3 provides the results of this study, in which C57BL6 male mice (n=8) were trained to discriminate the reference drug (THC) using a discrimination procedure similar to that described in Wiley et al., Neuropharmacology 75, 145-154 (2013), Van et al., Eur. J. Pharmacol. 615, 102-107, and Wiley et al., J. Pharmacol. Exp. Ther. 354, 328-339 (2015), which are incorporated herein by reference in their entireties. For each session, the percentage of responses on the drug-associated lever and response rate response(s) were calculated.

CB1 receptor = target: T2, CB1 receptor (Mus musculus, UniProt P47746); assay: PET target engagement with CB1 radiotracer 11C-JHU75528; type: in vivo; conditions: male and female B6 mice, IP pretreatment
T2 construct: from tissue; host or cells: brain of living B6 mice (in vivo PET)
Description: FIG. 5A provides a representative image of target specificity of Compound 3 for the CB1 receptor in mice along with quantification. […] The well-characterized CB1 radiotracer ^11C-JHU75528 was used for this purpose. A baseline response for each animal (2 male and 2 female mice) was first established using the vehicle and tracer (~10 MBq in 0.1-0.15 ml volume, tail vein catheter). Following a 48-hr washout, animals were administered Compound 3 via intraperitoneal (IP) injection followed by the probe. PET image acquisition by dynamic scanning was performed for 65 min after the second injection with energy window of 350-700 KeV. […] The PET images were normalized to the standardized uptake value (SUV) unit. Two-tissue compartmental model was applied using the PKIN module in PMOD 4.0 software. See, e.g., FIG. 5B, where quantification of the signal confirmed a blocking effect on cerebral uptake. Compound 3 blocked ^11C-JHU75528 uptake, confirming in vivo activity.

male C57BL/6J mice = assay: reversal of diet-induced obesity (DIO) in mice; type: in vivo; conditions: oral, 1x daily, 5 days per week
Description: Preconditioned male C57BL/6J mice were purchased from the Jackson Laboratories (Bar Harbor, Maine) at 18 weeks of age. These animals were maintained either on ad libitum standard diet (SD) with 10% fat (D12450B) or on 60% high fat diet (HFD; D12492) from Research Diets (New Brunswick, NJ.) Animals were dosed by intragastric gavage once daily Monday-Friday (5 days per week) with either vehicle (0.5% sodium carboxymethylcellulose with 1% NMP and 0.3% Tween 80 in de-ionized water) or Compound 3 suspended in the vehicle. Body weights were recorded at regular intervals. Organs were removed and processed as has been described in the legend of FIG. 4. Biomarkers of efficacy were measured including circulating enzymes, liver weight and liver adiposity as indicated.
Data were reported as mean (FIG. 4A) or mean and range (FIGS. 4B and 4C). […] Hepatic statosis was reduced, as assessed using Oil Red O staining (FIG. 4G), with representative images shown as FIGS. 4H, 4I, and 4J. Significance was calculated using ANOVA with Fisher's test (p<0.05*, 0.01**, 0.001***, 0.0001****).

human CB1 [3] = target: T1, human CB1; assay: suppression of basal signaling in fluorescent calcium mobilization assay (inverse agonism); type: cell-based
Description: as §1, with “Gqα16.” for “Gqα16. In FIG. 1A, a concentration-dependent increase in fluorescence upon treatment with the CB1 agonist CP55,940 is shown (solid line/triangle markers).”

T1 sequence (P21554 whole entry): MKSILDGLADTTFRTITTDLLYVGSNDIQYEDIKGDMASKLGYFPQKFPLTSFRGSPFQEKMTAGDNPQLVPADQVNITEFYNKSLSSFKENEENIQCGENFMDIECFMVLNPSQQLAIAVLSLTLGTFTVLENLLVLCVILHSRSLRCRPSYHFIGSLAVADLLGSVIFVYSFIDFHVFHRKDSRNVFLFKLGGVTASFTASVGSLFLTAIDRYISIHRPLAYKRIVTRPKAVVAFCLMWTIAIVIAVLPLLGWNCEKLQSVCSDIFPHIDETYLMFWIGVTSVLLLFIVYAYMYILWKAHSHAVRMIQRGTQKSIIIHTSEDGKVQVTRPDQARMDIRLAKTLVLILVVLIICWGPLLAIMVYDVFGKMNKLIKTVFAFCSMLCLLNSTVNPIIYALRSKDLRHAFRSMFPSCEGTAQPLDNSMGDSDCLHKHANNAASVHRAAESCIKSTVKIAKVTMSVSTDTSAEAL
Sequence of human CB2 (P34972 whole entry): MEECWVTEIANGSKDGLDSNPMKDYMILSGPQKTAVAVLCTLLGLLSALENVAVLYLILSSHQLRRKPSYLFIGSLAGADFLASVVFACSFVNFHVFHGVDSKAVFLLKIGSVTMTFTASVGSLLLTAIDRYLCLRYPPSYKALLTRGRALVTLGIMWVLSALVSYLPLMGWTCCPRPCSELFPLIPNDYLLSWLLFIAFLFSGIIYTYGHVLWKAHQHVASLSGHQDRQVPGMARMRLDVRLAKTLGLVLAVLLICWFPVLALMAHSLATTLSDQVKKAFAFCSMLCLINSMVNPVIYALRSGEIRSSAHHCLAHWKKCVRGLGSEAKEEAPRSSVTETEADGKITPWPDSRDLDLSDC
T2 sequence (P47746 whole entry): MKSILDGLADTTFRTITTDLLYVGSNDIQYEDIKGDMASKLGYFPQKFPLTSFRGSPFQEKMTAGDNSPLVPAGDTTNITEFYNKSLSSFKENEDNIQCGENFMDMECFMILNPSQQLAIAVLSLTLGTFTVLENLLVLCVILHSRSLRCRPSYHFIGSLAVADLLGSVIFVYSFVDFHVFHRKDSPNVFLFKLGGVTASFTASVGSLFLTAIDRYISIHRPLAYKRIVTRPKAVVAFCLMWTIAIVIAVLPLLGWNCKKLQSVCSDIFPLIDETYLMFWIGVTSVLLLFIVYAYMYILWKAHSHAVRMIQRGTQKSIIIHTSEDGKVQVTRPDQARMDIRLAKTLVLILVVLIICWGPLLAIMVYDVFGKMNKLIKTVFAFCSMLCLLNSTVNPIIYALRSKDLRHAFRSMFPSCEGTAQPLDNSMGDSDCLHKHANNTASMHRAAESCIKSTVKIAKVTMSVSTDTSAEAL

SMILES | Kd (human CB1 [1]) [nM] | Ki (human CB1 [2]) [nM] | HLM HL (HLM stability) [min] | microsomal CLint (HLM stability) [µL/min/mg] | Selectivity Ki (CB2/CB1) (human CB2) | also measured
CC1(NC(=O)Cc2ccccc2F)CCN(c2ncnc3c2nc(-c2ccccc2Cl)n3-c2ccc(Cl)cc2)CC1 [Compound 4, N-{1-[8-(2-Chlorophenyl)-9-(4-chlorophenyl)-9H-purin-6-yl]-4-methylpiperidin-4-yl}-2-(2-fluorophenyl)acetamide] | 3.8 | – | – | – | – | –
CC1(NC(=O)Cc2ccc(F)cc2)CCN(c2ncnc3c2nc(-c2ccccc2Cl)n3-c2ccc(Cl)cc2)CC1 [Compound 5, N-{1-[8-(2-Chlorophenyl)-9-(4-chlorophenyl)-9H-purin-6-yl]-4-methylpiperidin-4-yl}-2-(4-fluorophenyl)acetamide] | 1.8 | – | – | – | – | –

The next compounds have a lower Kd (human CB1 [1]) than those just listed; values first:

Kd (human CB1 [1]) [nM] | Ki (human CB1 [2]) [nM] | HLM HL (HLM stability) [min] | microsomal CLint (HLM stability) [µL/min/mg] | Selectivity Ki (CB2/CB1) (human CB2) | SMILES | also measured
1 | 1.5 | 146 | 9 | 110 | O=C(Cc1ccccc1F)NC1CCN(c2ncnc3c2nc(-c2ccccc2Cl)n3-c2ccc(Cl)cc2)CC1 [Compound 1, N-{1-[8-(2-Chlorophenyl)-9-(4-chlorophenyl)-9H-purin-6-yl]piperidin-4-yl}-2-(2-fluorophenyl)acetamide] | –
1 | 1.4 | 150 | 8 | 210 | O=C(Cc1ccc(F)cc1)NC1CCN(c2ncnc3c2nc(-c2ccccc2Cl)n3-c2ccc(Cl)cc2)CC1 [Compound 2, N-{1-[8-(2-Chlorophenyl)-9-(4-chlorophenyl)-9H-purin-6-yl]piperidin-4-yl}-2-(4-fluorophenyl)acetamide] | –
0.8 | 1.1 | 133 | 9 | 510 | O=C(Cc1ccc(F)cc1F)NC1CCN(c2ncnc3c2nc(-c2ccccc2Cl)n3-c2ccc(Cl)cc2)CC1 [Compound 3, N-{1-[8-(2-Chlorophenyl)-9-(4-chlorophenyl)-9H-purin-6-yl]piperidin-4-yl}-2-(2,4-difluorophenyl)acetamide] | antagonism: shift of the CP55,940 curve (human CB1 [1]; pre-incubation with antagonist): rightward shift; response rates (C57BL6 male mice; compared to controls): not significantly altered; maximum inhibition of THC drug discrimination (C57BL6 male mice; compared with rimonabant): comparable to that of rimonabant; THC drug discrimination (C57BL6 male mice; mice trained on 5.6 mpk THC, 3, 5.6 and 10 mpk antagonist): antagonize; 11C-JHU75528 cerebral uptake (PET) (CB1 receptor): blocked; body weight (male C57BL/6J mice): significantly reduced; circulating transaminase ALT (male C57BL/6J mice): reduce; circulating transaminase AST (male C57BL/6J mice): reduce; hepatic cholesterol content (male C57BL/6J mice): decrease; hepatic steatosis (Oil Red O staining) (male C57BL/6J mice): reduced; epididymal adipose weight (male C57BL/6J mice; normalized to tibia length): significantly reduced; liver weight (male C57BL/6J mice; normalized to tibia length): significantly reduced; effect on basal signaling (inverse agonism) (human CB1 [3]; absence of any stimulation/agonism): partial inverse agonist; Emax (human CB1 [3]; read-out: partial suppression of maximal response (basal signaling), % of rimonabant Emax): ~30%
